This is an account of results in patent EP2111858A1, “Novel treatment for alzheimer's disease” (EPFL Ecole Polytechnique Fédérale de Lausanne, priority 2008, dated 2009).

The test system of this assay is α- and β-secretase cleavage of APP. Briefly: Western blot of intracellular APP-C99 and APP-C83 in rat primary neurons exposed to NMDAR modulators. Particulars: 15 DIV, compared to the untreated control, NMDA, D-serine 30µM for 3 minutes, memantine 30µM for 16 hours, DAPT 1 µM for 16 hours. The class given is cell-based. The procedure:
Neuronal cultures and treatments. Cortical and hippocampal neurons were cultured as described^27 from postnatal day 0 rats or mice and all treatments described bellow carried out at 15 days in vitro (DIV). Stimulations with 30µM N-methyl-D-aspartate (NMDA, Tocris), 30µM D-serine (the D isoform of the amino acid serine, Sigma), or a combination of NMDA + D-serine (30µM each) were carried out for 3 minutes and neurons transferred into trophically enriched medium and further incubated for 16 hours. Treatments with 30µM 1-amino-3,5-dimethyladamantane (memantine, Lucerna-Chem), 1 µM N-[N-(3,5-difluorophenacetyl)-L-alanyl]-S-phenylgly cine t-butyl ester (DAPT, ), and 1 µM phorbol 12-myristate 13-acetate (PMA, Sigma) were carried out for 16 hours. Pre-treatments with 1 µM TAPI-1 (Calbiochem), 1 µM GL189 (Calbiochem), 1,2-bis(o-aminophenoxy)ethane-N,N,N',N'-tetraacetic acid (BAPTA, Sigma), H-89, chelerythrine, or KN-62 (Biaffin GmbH & Co KG) were carried out for 1 hour. Next, neurons were treated (or not) with NMDA or NMDA + D-serine as described above, and cells transferred into trophically enriched medium and incubated for additional 15 hours. Whole cell lysates were prepared for Western blot analysis as described below.
Western blotting and antibodies. Cells were washed with cold phosphate-bufferd saline containing 2 mM EDTA and homogenized in 50 mM Tris-HCL pH 7.4, 350 mM NaCl, 100 mM DTT, 0.1% SDS, 0.5% NP-40 and a cocktail of protease inhibitors (Roche Diagnostics). Protein whole cell extracts were separated on 4-12% Bis-tris gels (Invitrogen) and transferred onto nitrocellulose membranes to detect APP-FL, APP-C99, APP-C83 and AICD (CT15, Sigma), sAPPα (6E10, Signet), Notch-FL and NICD (Sigma), ADAM10 (Calbiochem), ADAM17 (Calbiochem), BACE1 (EE17, Sigma), NCT (NCT164, BD Bioscience), PS1-FL and PS1-NTF (MAB1536, Chemicon International), Pen-2 (UD-1, 1:500, a gift of Helena Karlström), and β-Action (Sigma).
On the technique in general: Immunoblotting shows a protein as a band on a membrane.

Consider `N[C@H](CO)C(=O)O` [D-serine], for which the “intracellular accumulation of APP-C99 and APP-C83” value (shortened to “intracellular accumulation”) is reported as “did not affect the production of APP-C99/APP-C83”.
In the case of `C[C@H](NC(=O)Cc1cc(F)cc(F)c1)C(=O)N[C@H](C(=O)OC(C)(C)C)c1ccccc1` [DAPT, N-[N-(3,5-difluorophenacetyl)-L-alanyl]-S-phenylglycine t-butyl ester], the “intracellular accumulation” value is “increased levels of both APP-C83 and APP-C99”.
As for `CC12CC3CC(C)(C1)CC(N)(C3)C2` [memantine, 1-amino-3,5-dimethyladamantane], the “intracellular accumulation” value is recorded as “triggered the accumulation of APP-C83”.
